Measurements reported in patent US4782064A, “2-heteroaryl-alkyl-1H-benz[de]-isoquinoline-1,3(2H)-diones” (American Cyanamid Co., priority 1986, dated 1988).
Where a name gives a salt, the structure may show the parent alone.

Tests used:
thromboxane synthetase = target: T1, thromboxane synthetase (Rattus norvegicus, UniProt P49430); assay: inhibition of thromboxane (TX) formation in platelets (TXB2 by radioimmunoassay); assay type: cell-based, Okamoto-Aoki spontaneously hypertensive rats (SHR); settings: drug at 10^-4 M, 10 minutes at 37° C., washed SHR platelets, TXB2 RIA
T1 construct: The platelets were isolated by centrifuging the PRP for 10 minutes; endogenous in cells; host or cells: washed platelets from arterial blood of Okamoto-Aoki spontaneously hypertensive rats (Taconic Farms, Germantown, N.Y.)
T1 sequence (P49430 1-533): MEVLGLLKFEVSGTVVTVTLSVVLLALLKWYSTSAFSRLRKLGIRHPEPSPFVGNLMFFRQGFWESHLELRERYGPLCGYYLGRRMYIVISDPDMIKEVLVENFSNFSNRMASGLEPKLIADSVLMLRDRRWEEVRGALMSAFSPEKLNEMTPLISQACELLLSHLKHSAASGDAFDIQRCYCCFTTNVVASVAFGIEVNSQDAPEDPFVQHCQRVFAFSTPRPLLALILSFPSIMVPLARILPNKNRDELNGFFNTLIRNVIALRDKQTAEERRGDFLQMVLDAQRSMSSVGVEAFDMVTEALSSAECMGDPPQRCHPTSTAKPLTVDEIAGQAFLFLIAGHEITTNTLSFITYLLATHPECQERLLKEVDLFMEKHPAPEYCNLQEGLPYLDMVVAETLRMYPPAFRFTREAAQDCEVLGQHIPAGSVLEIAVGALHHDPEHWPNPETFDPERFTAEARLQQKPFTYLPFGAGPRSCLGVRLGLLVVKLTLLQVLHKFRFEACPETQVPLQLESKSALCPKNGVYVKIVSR
Protocol: From Okamoto-Aoki spontaneously hypertensive rats (SHR) (Taconic Farms, Germantown, N.Y.) between 19 and 24 weeks in age, under urethan anesthesia, […] of arterial blood was collected in one ml of 3.2% sodium citrate a polystyrene tube. The blood was diluted with 3 ml cold saline and centrifuged at room temperature for 15 minutes at 460×g. The platelet rich plasma (PRP) was separated. The platelets were isolated by centrifuging the PRP for 10 minutes at 1060×g nd were washed in 4 ml cold oxygenated Krebs phosphate buffer, pH 7.4. The chilled platelets recovered from centrifuging at 800×g for 10 minutes were resuspended in oxygenated Krebs phosphate buffer and diluted to contain 4.5-6.0×10^4 platelets/μl. The inhibition of thromboxane (TX) formation was studied by determining the concentration of thromboxane B2 (TXB2), the stable hydrolysis product of TXA2. Assay samples, prepared on ice, contained 200 μl platelet suspension, 50 μl saline, and 50 μl vehicle or drug under study at a concentration of 10^-4 M (with OKY-1581, UK-3724801, 1-benzylimidazole, and/or indometha standards). The samples were incubated for 10 minutes at 37° C. in a metabolic shaker. The reaction was terminated by immersing the tubes in an ice bath and adding 50 μl of 0.5M citric acid. The samples were centrifuged for 10 minutes in a refrigerated centrifuge and the supernatants thus obtained were decanted and stored at -20° C. The TXB2 content for each sample was determined by a direct radioimmunoassay (RIA) utilizing a TXB2 specific RIA kit purchased from New England Nuclear, Boston, Mass. and results expressed as pg TXB2 formed minute^-1 sample^-1, from which the percent inhibition of TXB2 formation was calculated.

[1] = system: spontaneously hypertensive rats; assay: hypotensive activity in spontaneously hypertensive rats (mean arterial blood pressure); assay type: in vivo, spontaneously hypertensive rats of the Okamoto strain; settings: by gavage, 100 mg/kg or less, two doses 24 hours apart, measured 28 hours after the initial dose; starting average MABP 160±1.5 mm; number of rats in parentheses
Protocol: The novel compounds of the present invention are also active hypotensive agents and were tested for hypotensive activity by the method of P. S. Chan and D. Poorvin, Clinical and Experimental Hypertension, 1 (6), 817-830 (1979). Male, 16 week old, spontaneously hypertensive rats of the Okamoto strain, from Taconic Farms, Germantown, N.Y. having an average mean arterial blood pressure of 160±1.5 mm of mercury were used in the test. One to 3 rats were used per test compound. The rats were dosed by gavage with a test compound, suspended in 2% pre-boiled starch at a concentration of 50 mg/ml, at a dose of 100 mg/kg of body weight or less, with 0.9% sodium chloride loading at a dose of 25 ml/kg of body weight. A second identical dose of the test compound, without sodium chloride loading was given 24 hours later. At 28 hours after the initial dose, the mean arterial blood pressure (MABP) was measured by the method of Chan and Poorvir vide supra. The procedure was repeated in a second and third rat when necessary as specified in the referenced method.

[2] = system: coronary arteries of guinea pigs and rabbits; settings: cited from earlier work
ischemic myocardium = settings: canines; cited from earlier work

SMILES	inhibition at 100 µM (thromboxane synthetase) [%]	MABP/mm Hg (no. of rats) [1] [mm Hg]	also measured
O=C1c2cccc3cccc(c23)C(=O)N1CCCn1ccnc1 [2-[3(1 --H--imidazol-1-yl)propyl]-1 --H--benz[de]isoquinoline-1,3(2 --H)--dione]	89	103	–
CC(CN1C(=O)c2cccc3cc([N+](=O)[O-])cc(c23)C1=O)Cn1ccnc1 (stereo not shown) [2-[3-(1 --H--imidazol-1-yl)-2-methyl-propyl]-5-nitro-1 --H--benz[de]-isoquinoline-1,3(2 --H)--dione]	100	–	–
CCCCC[C@H](O)/C=C/[C@H]1O[C@H]2C[C@H](O2)[C@@H]1C/C=C\CCCC(=O)O [TXA2, thromboxane A2]	–	–	effect of injection into coronary arteries [2]: causes myocardial ischemia and subendocardial necrosis
O=C1c2cccc3cccc(c23)C(=O)N1CCCCn1ccnc1 [2-[4-(1H-Imidazol-1-yl)butyl]-1H-benz-[de]isoquinoline-1,3(2H)-dione]	96	106	–
CC(CCN1C(=O)c2cccc3cc([N+](=O)[O-])cc(c23)C1=O)n1ccnc1 (stereo not shown) [2-[3-(1 --H--imidazol-1-yl)butyl]-5-nitro-1 --H--benz[de]isoquinoline-1,3(2 --H)--dione]	100	–	–
O=C1c2cccc3cc([N+](=O)[O-])cc(c23)C(=O)N1CCCn1ccnc1-c1ccccc1 [5-Nitro-2-[3-(2-phenyl-1 --H--imidazol-1-yl)propyl]-1 --H-- benz[de]-isoquinoline-1,3(2 --H)--dione]	89	–	–
O=C1c2cccc3cccc(c23)C(=O)N1C(CCn1ccnc1)c1ccccc1 (stereo not shown) [2-[3-(1 --H--imidazol-1-yl)-1-phenyl-propyl]-1 --H--benz[de]isoquinoline-1,3(2 -- H)--dione]	97	–	–
O=C1c2cccc3cc([N+](=O)[O-])cc(c23)C(=O)N1CCCn1ccnc1 [2-[3-(1 --H--imidazol-1-yl)propyl]-5-nitro-1 --H--benz[de]isoquinoline-1,3(2 --H)--dione]	100	97	–
O=C1c2cccc3cccc(c23)C(=O)N1CCCCCCCCn1ccnc1 [2-[8-(1H-Imidazol-1-yl)octyl]-1H-benz[de]isoquinoline-1,3(2H)-dione]	98	–	–
O=C1c2cccc3c(Cl)ccc(c23)C(=O)N1CCCn1ccnc1 [6-Chloro-2-[3(1 --H--imidazol-1-yl)-propyl]-1 --H--benz[de]isoquinoline-1,3(2 --H)--dione monohydrochloride]	95	–	–
O=C1c2cccc3cccc(c23)C(=O)N1CCCCCn1ccnc1 [2-[5-(1 --H--imidazol-1-yl)pentyl)-1 --H--benz[de]isoquinoline-1,3(2 --H)--dione]	100	–	–
O=C1c2cccc3cc([N+](=O)[O-])cc(c23)C(=O)N1CCCCCn1ccnc1 [2-[5-(1 --H--imidazol-1-yl)pentyl)-5-nitro-1 --H--benz[de]isoquinoline-1,3(2 --H)--dione]	98	–	–
O=C1c2cccc3cc([N+](=O)[O-])cc(c23)C(=O)N1CCCCn1ccnc1 [2-[4-(1H-Imidazol-1-yl)butyl]-5-nitro-1H-benz[de]isoquinoline-1,3(2H)-dione]	97	123	–
Cc1cn(CCCN2C(=O)c3cccc4cccc(c34)C2=O)cn1 [2-[3-(4-methyl-1 --H--imidazol-1-yl)-propyl]-1 --H--benz[de]isoquinoline-1,3(2 --H)--dione]	98	–	–
O=C1c2cccc3cc([N+](=O)[O-])cc(c23)C(=O)N1CCCn1cncn1 [5-Nitro-2-[3-(1 --H--1,2,4-triazol-1-yl)propyl]-1 --H--benz[de]isoquinoline-1,3(2 --H)--dione]	94	127	–
CC(CN1C(=O)c2cccc3cccc(c23)C1=O)Cn1ccnc1 (stereo not shown) [2-[3-(1 --H--imidazol-1-yl)-2-methyl-propyl]-1 --H--benz[de]isoquinoline-1,3(2 --H)--dione]	99	134	–
O=C1c2cccc3cc([N+](=O)[O-])cc(c23)C(=O)N1CCCCc1cccnc1 [5-nitro-2-[4-(3-pyridinyl)butyl]-1 --H--benz[de]isoquinoline-1,3(2 --H)--dione]	94	–	–
O=C1c2cccc3cc([N+](=O)[O-])cc(c23)C(=O)N1CCc1cccnc1 [5-Nitro-2-[2-(3-pyridinyl)ethyl]-1 --H--benz[de]isoquinoline-1,3(2 --H)--dione]	94	–	–
CC(CCN1C(=O)c2cccc3cccc(c23)C1=O)n1ccnc1 (stereo not shown) [2-[3-(1 --H--imidazol-1-yl)butyl]-1 --H--benz[de]isoquinoline-1,3(2 --H)--dione]	97	120	–
CCCCC[C@H](O)/C=C/[C@@H]1[C@H]2C/C(=C/CCCC(=O)O)O[C@H]2C[C@H]1O [PGI2, Prostacyclin]	–	–	effects on ischemic myocardium (ischemic myocardium): beneficial effects
O=C1c2cccc3cccc(c23)C(=O)N1CCCCc1cccnc1 [2-[4-(3-pyridinyl)butyl]-1 --H--benz[de]isoquinoline-1,3(2 --H)--dione]	98	137	–
O=C1c2cccc3c(Cl)ccc(c23)C(=O)N1CCCCCn1ccnc1 [6-Chloro-2-[5-(1 --H--imidazol-1-yl)pentyl]-1 --H--benz[de]isoquinoline-1,3-(2 --H)--dione]	94	–	–
O=C1c2cccc3c(Cl)ccc(c23)C(=O)N1CCCCn1ccnc1 [6-Chloro-2-[4-(1H-imidazol-1-yl)butyl]-1H-benz[de]isoquinoline-1,3(2H)-dione monohydrochloride]	96	–	–
O=C1c2cccc3cccc(c23)C(=O)N1CCCn1cncn1 [2-[3-(1 --H--1,2,4-triazol-1-yl)-propyl]-1 --H--benz[de]isoquinoline-1,3(2 --H)--dione]	96	–	–
Nc1ccc2c3c(cccc13)C(=O)N(CCCCn1ccnc1)C2=O [6-Amino-2-[4-(1 --H--imidazol-1-yl)butyl]-1 --H--benz[de]isoquinoline-1,3-(2 --H)--dione dihydrochloride]	96	115	–
